Test results from US9109048B2, “Inhibition of tumor growth” (priority 1998, dated 2015).
Converted amounts (≈) assume the structure as drawn. “And” between values parts separate entries of the source, which are not always exact repeats. Identical values can stand only once. Like-named read-outs stand apart in the source and are kept apart here. Square brackets hold non-standard residues; d marks the D form. Ends that are not written are not given here. Peptide text beside a SMILES is read from it. * marks the point of attachment. Bip = N[C@@H](Cc1ccc(-c2ccccc2)cc1)C(=O)O; Fmoc = O=C(OCC1c2ccccc2-c2ccccc21)*; Acm = CC(=O)NC*

What was measured:
[1] = test system: Meth A cells (murine sarcoma cell line); experiment: Cytotoxicity on Meth A cells, MTT method
Method: Peptide solutions (0.1 ml) were added and the plates incubated at 37° C. for 30 minutes, 4 hours or 24 hours. The cytotoxicity was measured using the MTT method (Mosmann et al., J. Immunol. (1986) 136, 2348-2357).
Cells in the growth phase were harvested and washed in fresh medium and injected subcutaneously into the abdominal region of the mice.
The cytotoxic effect of the peptides on different murine and human tumor cells were measured using the MTT method (Mosmann et al., J. Immunol. (1986) 136, 2348-2357).
MTT is a soluble tetrazolium salt yielding a yellow solution when prepared in media or salt solutions lacking phenol red. Dissolved MTT is converted to an insoluble purple formazan by cleavage of the tetrazolium ring by dehydrogenase enzymes. This water insoluble formazan can be solubilized using isopropanol or other solvents and the dissolved material is measured spectrophotometrically. The absorbance was measured as a function of concentration of converted dye.
Cells were maintained in […] medium containing 10% FBS, 1% L-glutamine and 0.1% penicillin and streptomycin. Cells to be used in the assay were grown to confluency, trypsinated and split to single cell suspension, counted and centrifuged at 1500 rpm for 10 min. […][…] of cell suspension was transferred to each well on a 96-well microtiter plate. The cells were stimulated by adding […] of various concentrations of peptides diluted with assay medium to each well. The final concentrations of peptide were for example: 5, 10, 20, 40, 60, 80, 100, and 200 mg/ml. […] As a negative control only medium was added to the cells, and as a positive control (100% killing) 1% triton X-100 was added. Following an incubation period of 4 h., 20 ml MTT dissolved in PBS at a concentration of 5 mg/ml was added to each well, and the plate was incubated further for 2 h. 130 ml of the supernatant were then removed and […] acid alcohol (0.04-0.1 N HCl in isopropanol) added to each well to dissolve the dark blue crystals. The plate was placed on a shaker for 1 h and read spectrophotometrically at 590 nm in a microtiterplate reader using the Softmaxâ program.

[2] = test system: MRSA (methicillin resistant S. aureus); assay type: cell-based
Method: (§1) The bacterial strains used were: Escherichia coli ATCC 25922 and Staphylococcus aureus ATCC 25923. All strains were stored at −70° C. The bacteria were grown in 2% Bacto Peptone water (Difco 1807-17-4). All tests were performed with bacteria in mid-logarithmic growth phase. Determination of the minimum inhibitory concentration (MIC) of the peptides for bacterial strains were performed in 1% Bacto Peptone water. A standard microdilution technique with an inoculum of 2×10^6 CFU/ml was used. All assays were performed in triplets. Since the peptides are positively charged and therefore could adhere to the plastic wells, we controlled the actual concentration of the peptides in the solution by HPLC. There was no difference between the concentration of the peptides before or after adding the solution to the plastic wells.
Table 15 below gives the antibacterial activity and toxicity data for some preferred peptides of the invention. MRSA is methicillin resistant S. aureus and MRSE is methicilin resistant S. epidermidis.

[3] = test system: Escherichia coli ATCC 25922; experiment: MIC (minimum inhibitory concentration) test, microdilution; assay type: cell-based
Method: as §1

[4] = test system: Staphylococcus aureus ATCC 25923; experiment: as above; assay type: cell-based
Method: as §1

[5] = Table 7, in µg/mL (unit assumed)

With `CSCC[C@H](NC(=O)[C@H](CCCNC(=N)N)NC(=O)[C@H](C)NC(=O)[C@H](CCC(N)=O)NC(=O)[C@H](Cc1c[nH]c2ccccc12)NC(=O)[C@H](CCCNC(=N)N)NC(=O)[C@H](CCCNC(=N)N)NC(=O)[C@H](CSCNC(C)=O)NC(=O)[C@H](CCCCN)NC(=O)[C@H](Cc1ccccc1)NC(=O)OCC1c2ccccc2-c2ccccc21)C(=O)N[C@@H](CCCCN)C(=O)N[C@@H](CCCCN)C(=O)N[C@@H](CC(C)C)C(=O)NCC(=O)N[C@@H](C)C(=O)O` [LFB A8 FMOC] (Fmoc-FKC(Acm)RRWQARMKKLGA-OH) the “concentration effective in killing Meth A cells” value ([1]; 4 hours incubation) was 250 µg/mL and the “concentration effective in killing Meth A cells” value ([1]; ½ hour incubation) was 250 µg/mL.

`CSCC[C@H](NC(=O)[C@H](CCCNC(=N)N)NC(=O)[C@H](Cc1c[nH]c2ccccc12)NC(=O)[C@H](CCC(N)=O)NC(=O)[C@H](Cc1c[nH]c2ccccc12)NC(=O)[C@H](CCCNC(=N)N)NC(=O)[C@H](CCCNC(=N)N)NC(=O)[C@H](Cc1ccc(-c2ccccc2)cc1)NC(=O)[C@H](CCCCN)NC(=O)[C@@H](N)Cc1ccccc1)C(=O)N[C@@H](CCCCN)C(=O)N[C@@H](CCCCN)C(=O)N[C@@H](CC(C)C)C(=O)NCC(=O)N[C@@H](C)C(=O)O` [LFB Bip3] (H-FK[Bip]RRWQWRMKKLGA-OH; N-terminus assumed) was tested, and the “MIC MRSA” value ([2]; Table 15) was 2.5 µg/mL (≈ 1.18 µM).

In the case of `CSCC[C@H](NC(=O)[C@H](CCCNC(=N)N)NC(=O)[C@H](Cc1ccc(-c2ccccc2)cc1)NC(=O)[C@H](CCC(N)=O)NC(=O)[C@H](Cc1ccc(-c2ccccc2)cc1)NC(=O)[C@H](CCCNC(=N)N)NC(=O)[C@H](CCCNC(=N)N)NC(=O)[C@H](CSCNC(C)=O)NC(=O)[C@H](CCCCN)NC(=O)[C@@H](N)Cc1ccccc1)C(=O)N[C@@H](CCCCN)C(=O)N[C@@H](CCCCN)C(=O)N[C@@H](CC(C)C)C(=O)NCC(=O)N[C@@H](C)C(=O)O` [LFB Bip6,8], the “MIC E. coli” value ([3]; Table 15) is reported as “≧5.8 μM”, the “MIC S. aureus” value ([4]; Table 15) is reported as 3.0 µg/mL (≈ 1.4 µM) and the “MIC MRSA” value ([2]; Table 15) is reported as 2.5 µg/mL (≈ 1.17 µM).

`CSCC[C@H](NC(=O)[C@H](CCCNC(=N)N)NC(=O)[C@H](Cc1ccc(-c2ccccc2)cc1)NC(=O)[C@H](CCC(N)=O)NC(=O)[C@H](Cc1c(S(=O)(=O)c2c(C)c(C)c3c(c2C)CCC(C)(C)O3)[nH]c2ccccc12)NC(=O)[C@H](CCCNC(=N)N)NC(=O)[C@H](CCCNC(=N)N)NC(=O)[C@H](CSCNC(C)=O)NC(=O)[C@H](CCCCN)NC(=O)[C@@H](N)Cc1ccccc1)C(=O)N[C@@H](CCCCN)C(=O)N[C@@H](CCCCN)C(=O)N[C@@H](CC(C)C)C(=O)NCC(=O)N[C@@H](C)C(=O)O` [LFB Bip8 PMC] was tested, and the “MIC E. coli” value ([3]; Table 9) was 25 µg/mL (≈ 10.6 µM), the “MIC E. coli” value ([3]; Table 15) was 15.0 μg/ml and 6.3 μM and the “MIC S. aureus” value ([4]; Table 9) was 5 µg/mL (≈ 2.11 µM). The “MIC S. aureus” value ([4]; Table 15) was 2.5 μg/ml and 1.1 μM and the “MIC MRSA” value ([2]; Table 15) was 2.5 µg/mL (≈ 1.06 µM).

In the case of `C[C@@H](NC(=O)[C@H](Cc1c[nH]c2ccccc12)NC(=O)[C@H](CCCNC(=N)N)NC(=O)[C@H](Cc1c[nH]c2ccccc12)NC(=O)[C@@H](C)NC(=O)[C@@H](CCCNC(=N)N)NC(=O)[C@H](N)Cc1ccc(O)cc1)C(=O)N[C@@H](Cc1c[nH]c2ccccc12)C(=O)N[C@@H](CCCNC(=N)N)C(=O)N[C@@H](Cc1c[nH]c2ccccc12)C(=O)N[C@@H](CCCNC(=N)N)C(N)=O` [SEQ ID NO: 34, tyr-arg-ala-TRP-ARG-TRP-ala-TRP-ARG-TRP-ARG-CONH2] (H-[dY][dR][dA]WRW[dA]WRWR-NH2; N-terminus assumed), the “MIC E. coli” value ([3]; Table 16, peptides with D-amino acids) is reported as 7.5 µg/mL (≈ 4.43 µM), the “MIC S. aureus” value ([4]; Table 16) is reported as 5 µg/mL (≈ 2.96 µM) and the “MIC MRSA” value ([2]; Table 16) is reported as 2.5 µg/mL (≈ 1.48 µM).

GIGKFLHSAKKFGKAFVGWIMNS [Mag2 W19] was tested, and the “MIC E. coli” value ([3]; ATCC 25922) was 7.5 µg/mL, the “MIC E. coli” value [3, 5] was 5-10 and the “MIC S. aureus” value ([4]; ATCC 25923) was 10 µg/mL. For the same compound, the “MIC S. aureus” value [4, 5] was 5-10 and the “Meth A IC 50” value ([1]; 4 h) was 9 µg/mL.

In the case of “GIGKFWKKARKWGRWFWRILKKG [Tosmag W6,12,15,17]”, the “MIC E. coli” value ([3]; ATCC 25922) is reported as 15 µg/mL, the “MIC S. aureus” value ([4]; ATCC 25923) is reported as 10 µg/mL and the “Meth A IC 50” value ([1]; 4 h) is reported as 23 µg/mL.

For “GIGKWLKKWRKFWRAWVRIWKKG [Tosmag W5,9,13,16,20]”, the “MIC E. coli” value ([3]; ATCC 25922) was >50 µg/mL, the “MIC S. aureus” value ([4]; ATCC 25923) was >50 µg/mL and the “Meth A IC 50” value ([1]; 4 h) was 23 µg/mL.

For “H-GIGKFLHSAKKFGKAFVGEIMNS-OH [Mag2, reference compound]”, the “MIC E. coli” value [3, 5] was 20, the “MIC E. coli” value ([3]; Table 11) was 20 µg/mL and the “MIC S. aureus” value [4, 5] was >200. The “MIC S. aureus” value ([4]; Table 11) was >100 µg/mL and the “Meth A IC 50” value ([1]; Table 11, peptide required to kill 50% of Meth A cells) was 100 µg/mL.

In the case of “H-GIGKFLKKARKFGRAFVRILKKG-OH [Tosmag, reference compound]”, the “MIC E. coli” value ([3]; ATCC 25922) is reported as 8 µg/mL, the “MIC S. aureus” value ([4]; ATCC 25923) is reported as 8 µg/mL and the “Meth A IC 50” value ([1]; 4 h) is reported as 18 µg/mL.

“H-KMASKAGKIAGKIAKVALKAL-NH2 [MSI 24, reference compound]” was tested, and the “MIC E. coli” value ([3]; ATCC 25922) was 5 µg/mL, the “MIC S. aureus” value ([4]; ATCC 25923) was 5 µg/mL and the “Meth A IC 50” value ([1]; 4 h) was >100 µg/mL.

With “H-KVALKALKVALKALKVALKAL-NH2 [MSI 20, reference compound]” the “Meth A IC 50” value ([1]; 4 h) was >100 µg/mL.

In the case of “KMASKAGKIAWKIAKVALKAL-NH2 (C-terminus assumed) [MSI 24 W11]”, the “MIC E. coli” value ([3]; ATCC 25922) is reported as 5 µg/mL, the “MIC S. aureus” value ([4]; ATCC 25923) is reported as 2.5 µg/mL and the “Meth A IC 50” value ([1]; 4 h) is reported as 24 µg/mL.

For “KMASKAWKIAGKIAKVALKAL-NH2 (C-terminus assumed) [MSI 24 W7]”, the “MIC E. coli” value ([3]; ATCC 25922) was 5 µg/mL, the “MIC S. aureus” value ([4]; ATCC 25923) was 5 µg/mL and the “Meth A IC 50” value ([1]; 4 h) was 26 µg/mL.

In the case of “KVALKWLKVALKALKVALKAL-NH2 (C-terminus assumed) [MSI 20 W6]”, the “Meth A IC 50” value ([1]; 4 h) is reported as 22 µg/mL.

With “Linear LFB (17-41) modified with Pmc: Linear LFB (17-41) modified with Pmc (FKCRRWQWRMKKLGAPSITCVRRAF; cysteine pairing not given here; also: modified with Pmc group, site not given here; UniProt P24627 36-60, looked up, fragment)” the “cytotoxic effect on Meth A cells compared with another peptide” value [1] was “slightly more effective than Pmc modified LFB 17-31”.

In the case of “YRWWRWARRW-NH2 [LFM 17-26 A7R2,8,9W3,4, 10Y1NH2]”, the “MIC E. coli” value ([3]; Table 12) is reported as 10 µg/mL, the “MIC E. coli” value ([3]; Table 15) is reported as 10.0 µg/mL and the “MIC S. aureus” value ([4]; Table 15) is reported as 1.0 µg/mL. For the same compound, the “MIC MRSA” value ([2]; Table 15) was 2.5 µg/mL.
